Patent US20240002401A1, “IMIDAZOTHIAZOLE COMPOUNDS, PHARMACEUTICAL COMPOSITIONS, AND USES THEREOF” (GUANGZHOU HENOVCOM BIOSCIENCE CO., LTD., priority 2020, published 2024)

Assays:
ATX = ATX (Homo sapiens, UniProt Q13822); assay: Enzyme activity screening in vitro with LPC as substrate (Amplex Red fluorescence); assay type: biochemical; settings: inhibitory activity against ATX
Source text: Analysis In Vitro: LPC was Used as Substrate for Screening Enzyme Activity
Principle: Lysophosphatidylcholine (LPC) as substrate is hydrolyzed by using the activity of lysoPLD enzyme, to produce lysophosphatidic acid (LPA) and choline, which is oxidized to produce H2O2 under the action of choline oxidase. In presence of horse radish peroxidase (HPR), Amplex Red reagent is reacted with H2O2 in a quantitative chemistry ratio of 1 to 1, to produce strong fluorescence products, which are detected by a fluorescent quantitative test.
20 μl of the above mixed solution 1 was added to each hole of an experiment board, […]. The compounds diluted with DMSO were transferred into an experiment board with Echo550. The reaction buffer solution was used for preparing a mixed solution 2 of […] LPC and 400 μM Amplex Red in a final concentration. 20 μl of the above mixed solution 2 was added to each hole of the experiment board. After addition, the experiment board was shook for 30 seconds on a shaker, and incubated for 30 minutes. Envision was used to read the fluorescence signals with an exciting light at 530 nm and emitted light at 590 nm.

[1] = Pharmacokinetics test in mice; assay type: in vivo; settings: male SD mice; for F: absolute bioavailability, oral 5 mg/kg vs intravenous 1 mg/kg; for AUC / half-life: mouse, plasma
Source text: Pharmacokinetics Test in Mice
Male SD mice were selected for pharmacokinetics test study, plasma concentration at different time points were quantitatively determined by LC/MS/MS method after the mice were intravenously injected and orally administrated with the compounds to be tested, thereby evaluating pharmacokinetics characteristic of the compounds to be tested in SD mice.
SD mice (free food and drink, 6 to 8 weeks old) were intravenously administrated via a foot injection with a clear solution of the compounds to be tested, alternatively, SD mice (free food and drink, 6 to 8 week old) were intragastrically administrated with a suspension of the compounds to be tested. Blood samples were collected from the tail veins of the mice 0.083, 0.25, 0.5, 1, 2, 4, 6, 8, 10, and 24 hours after administration, and each sampling was 0.15 mL. All collected blood samples were placed into centrifuge tubes with EDTA-K2, turned upside and down to mix the anticoagulant with the blood well. The plasma was separated by centrifugation at 1500 g for 10 min at 4° C. within […]. The plasma sample was transferred into a new centrifuge tube and stored at −90° C. to −60° C. until the analysis was performed. LC-MS/MS was used to measure the blood concentration of the compounds to be tested of the present disclosure, and the pharmacokinetic parameters, as well as absolute bioavailability, were calculated by a non-compartment model in Pharsight Phoenix 8.0 software, as shown in Table 2.

[2] = Intravenous injection (1 mg/kg)

Row | IC50 (ATX) | Compound | further results
1 | 0.01 to 100 nM | CCc1nc2sc(C3CCN(CC(=O)NCC(F)F)CC3)cn2c1N(CC)c1nc(-c2ccc(F)cc2)c(C#N)s1 [Embodiment 11, 2-(4-(5-((5-cyano-4-(4-fluorophenyl)thiazol-2-yl)(ethyl)amino)-6-ethylimidazo[2,1-b]thiazol-2-yl)piperidin-1-yl)-N-(2,2-difluoroethyl)acetamide] | F [1]: 42%; AUC [1, 2]: 907 ng·h/mL; half-life [1, 2]: 4.69 h; AUC ([1]; Oral administration (5 mg/kg)): 1730 ng·h/mL; half-life ([1]; Oral administration (5 mg/kg)): 4.4 h
2 | 0.01 to 100 nM | CCc1nc2sc(C3CCN(CC(=O)NCC4(O)CCC4)CC3)cn2c1N(CC)c1nc(-c2ccc(F)cc2)c(C#N)s1 [Embodiment 16, 2-(4-(5-((5-cyano-4-(4-fluorophenyl)thiazol-2-yl)(ethyl)amino)-6-ethylimidazo[2,1-b]thiazol-2-yl)piperidin-1-yl)-N-((1-hydroxycyclobutyl)methyl) acetamide] | –
3 | 100 to 500 nM | CCc1nc2sc(C3CCN(CC(=O)NCC4CC4)CC3)cn2c1N(CC)c1nc(-c2ccc(F)cc2)c(C#N)s1 [Embodiment 18, 2-(4-(5-((5-cyano-4-(4-fluorophenyl)thiazol-2-yl)(ethyl)amino)-6-ethylimidazo[2,1-b]thiazol-2-yl)piperidin-1-yl)-N-(cyclopropylmethyl)acetamide] | –
4 | 0.01 to 100 nM | CCc1nc2sc(C3CCN(CC(=O)NCC4CCC4)CC3)cn2c1N(CC)c1nc(-c2ccc(F)cc2)c(C#N)s1 [Embodiment 19, 2-(4-(5-((5-cyano-4-(4-fluorophenyl)thiazol-2-yl)(ethyl)amino)-6-ethylimidazo[2,1-b]thiazol-2-yl)piperidin-1-yl)-N-(cyclobutylmethyl)acetamide] | –
5 | 0.01 to 100 nM | CCc1nc2sc(C3CCN(CC(=O)NC4CC(O)C4)CC3)cn2c1N(CC)c1nc(-c2ccc(F)cc2)c(C#N)s1 (centres unmarked) [Embodiment 5, 2-(4-(5-((5-cyano-4-(4-fluorophenyl)thiazol-2-yl)(ethyl)amino)-6-ethylimidazo[2,1-b]thiazol-2-yl]piperidin-1-yl)-N-(3-hydroxycyclobutyl)acetamide] | –
6 | 100 to 500 nM | CCc1nc2sc(C3CCN(CC(=O)NCC4(O)CC4)CC3)cn2c1N(CC)c1nc(-c2ccc(F)cc2)c(C#N)s1 [Embodiment 15, 2-(4-(5-((5-cyano-4-(4-fluorophenyl)thiazol-2-yl)(ethyl)amino)-6-ethylimidazo[2,1-b]thiazol-2-yl)piperidin-1-yl)-N-((1-hydroxycyclopropyl)methyl)acetamide] | –
7 | 100 to 500 nM | CCc1nc2sc(C3CCN(CC(=O)NCCO)CC3)cn2c1N(CC)c1nc(-c2ccc(F)cc2)c(C#N)s1 [Embodiment 3, 2-(4-(5-((5-cyano-4-(4-fluorophenyl)thiazol-2-yl)(ethyl)amino)-6-ethylimidazo[2,1-b]thiazol-2-yl]piperidin-1-yl)-N-(2-hydroxyethyl)acetamide] | –
8 | 0.01 to 100 nM | CCc1nc2sc(C3CCN(CC(=O)NCC(C)(C)O)CC3)cn2c1N(CC)c1nc(-c2ccc(F)cc2)c(C#N)s1 [Embodiment 8, 2-(4-(5-((5-cyano-4-(4-fluorophenyl)thiazol-2-yl)(ethyl)amino)-6-ethylimidazo[2,1-b]thiazol-2-yl)piperidin-1-yl)-N-(2-hydroxy-2-methylpropyl)acetamide] | –
9 | 0.01 to 100 nM | CCc1nc2sc(C3CCN(CC(=O)NC4(CO)CC4)CC3)cn2c1N(CC)c1nc(-c2ccc(F)cc2)c(C#N)s1 [Embodiment 12, 2-(4-(5-((5-cyano-4-(4-fluorophenyl)thiazol-2-yl)(ethyl)amino)-6-ethylimidazo[2,1-b]thiazol-2-yl)piperidin-1-yl)-N-(1-(hydroxymethyl)cyclopropyl)acetamide] | –

More lines, now with the values behind:

Row | Compound | IC50 (ATX) | further results
10 | CCc1nc2sc(C3CCN(CC(=O)N4CCOCC4)CC3)cn2c1N(CC)c1nc(-c2ccc(F)cc2)c(C#N)s1 [Embodiment 22, 2-(ethyl(6-ethyl-2-(1-(2-morpholino-2-oxoethyl)piperidin-4-yl)imidazo[2,1-b]thiazol-5-yl)amino)-4-(4-fluorophenyl)thiazole-5-carbonitrile] | 0.01 to 100 nM | F [1]: 39%; AUC [1, 2]: 649 ng·h/mL; half-life [1, 2]: 4.56 h; AUC ([1]; Oral administration (5 mg/kg)): 1260 ng·h/mL; half-life ([1]; Oral administration (5 mg/kg)): 4.19 h
11 | CCc1nc2sc(C3CCN(CC(=O)NC(C)CO)CC3)cn2c1N(CC)c1nc(-c2ccc(F)cc2)c(C#N)s1 (centres unmarked) [Embodiment 13, 2-(4-(5-((5-cyano-4-(4-fluorophenyl)thiazol-2-yl)(ethyl)amino)-6-ethylimidazo[2,1-b]thiazol-2-yl)piperidin-1-yl)-N-(1-hydroxypropan-2-yl)acetamide] | 100 to 500 nM | –
12 | [2H]C([2H])([2H])C([2H])([2H])N(c1nc(-c2ccc(F)cc2)c(C#N)s1)c1c(CC)nc2sc(C3CCN(CC(=O)N4CC(O)C4)CC3)cn12 [Embodiment 7, 2-((ethyl-d5)(6-ethyl-2-(1-(2-(3-hydroxyazetidin-1-yl)-2-oxoethyl)piperidin-4-yl)imidazo[2,1-b]thiazol-5-yl)amino)-4-(4-fluorophenyl)thiazole-5-carbonitrile] | 0.01 to 100 nM | F [1]: 65%; AUC [1, 2]: 1480 ng·h/mL; half-life [1, 2]: 3.97 h; AUC ([1]; Oral administration (5 mg/kg)): 4810 ng·h/mL; half-life ([1]; Oral administration (5 mg/kg)): 2.81 h
13 | CCc1nc2sc(C3CCN(CC(=O)NCC(C)(C)CO)CC3)cn2c1N(CC)c1nc(-c2ccc(F)cc2)c(C#N)s1 [Embodiment 9, 2-(4-(5-((5-cyano-4-(4-fluorophenyl)thiazol-2-yl)(ethyl)amino)-6-ethylimidazo[2,1-b]thiazol-2-yl)piperidin-1-yl)-N-(3-hydroxy-2,2-dimethylpropyl)acetamide] | 0.01 to 100 nM | –
14 | CCc1nc2sc(C3CCN(CC(=O)NC4COC4)CC3)cn2c1N(c1nc(-c2ccc(F)cc2)c(C#N)s1)C(C)C [Embodiment 27, 2-(4-(5-((5-cyano-4-(4-fluorophenyl)thiazol-2-yl)(isopropyl)amino)-6-ethylimidazo[2,1-b]thiazol-2-yl)piperidin-1-yl)-N-(oxacyclobut-3-yl)acetamide] | 0.01 to 100 nM | –
15 | CCc1nc2sc(C3CCN(CC(=O)NC4CCOCC4)CC3)cn2c1N(c1nc(-c2ccc(F)cc2)c(C#N)s1)C(C)C [Embodiment 26, 2-(4-(5-((5-cyano-4-(4-fluorophenyl)thiazol-2-yl)(isopropyl)amino)-6-ethylimidazo[2,1-b]thiazol-2-yl)piperidin-1-yl)-N-(tetrahydro-2H-pyran-4-yl)acetamide] | 0.01 to 100 nM | –
16 | CCc1nc2sc(C3CCN(CC(=O)N(C)CCO)CC3)cn2c1N(CC)c1nc(-c2ccc(F)cc2)c(C#N)s1 [Embodiment 4, 2-(4-(5-((5-cyano-4-(4-fluorophenyl)thiazol-2-yl)(ethyl)amino)-6-ethylimidazo[2,1-b]thiazol-2-yl]piperidin-1-yl)-N-(2-hydroxyethyl)-N-methylacetamide] | 0.01 to 100 nM | –
17 | CCc1nc2sc(C3CCN(CC(=O)N4CC(O)C4)CC3)cn2c1N(CC(F)(F)F)c1nc(-c2ccc(F)cc2)c(C#N)s1 [Embodiment 6, 2-((6-ethyl-2-(1-(2-(3-hydroxyazetidin-1-yl)-2-oxoethyl)piperidin-4-yl)imidazo[2,1-b]thiazol-5-yl)(2,2,2,-trifluoroethyl)amino)-4-(4-fluorophenyl)thiazole-5-carbonitrile] | 0.01 to 100 nM | –
18 | CCc1nc2sc(C3CCN(CC(=O)NC(C)(C)CO)CC3)cn2c1N(CC)c1nc(-c2ccc(F)cc2)c(C#N)s1 [Embodiment 14, 2-(4-(5-((5-cyano-4-(4-fluorophenyl)thiazol-2-yl)(ethyl)amino)-6-ethylimidazo[2,1-b]thiazol-2-yl)piperidin-1-yl)-N-(1-hydroxy-2-methylpropan-2-yl)acetamide] | 0.01 to 100 nM | –
19 | CCc1nc2sc(C3CCN(CC(=O)N(C)CCC#N)CC3)cn2c1N(CC)c1nc(-c2ccc(F)cc2)c(C#N)s1 [Embodiment 10, 2-(4-(5-((5-cyano-4-(4-fluorophenyl)thiazol-2-yl)(ethyl)amino)-6-ethylimidazo[2,1-b]thiazol-2-yl)piperidin-1-yl)-N-(2-cyanoethyl)-N-methylacetamide] | 0.01 to 100 nM | –
20 | CCc1nc2sc(C3CCN(CC(=O)NC4CC(F)(F)C4)CC3)cn2c1N(CC)c1nc(-c2ccc(F)cc2)c(C#N)s1 [Embodiment 17, 2-(4-(5-((5-cyano-4-(4-fluorophenyl)thiazol-2-yl)(ethyl)amino)-6-ethylimidazo[2,1-b]thiazol-2-yl)piperidin-1-yl)-N-(3,3-difluorocyclobutyl)acetamide] | 100 to 500 nM | –
